# Results: article PMC10455244, “Alpha-Mangostin: A Potent Inhibitor of TRPV3 and Pro-Inflammatory Cytokine Secretion in Keratinocytes” (International Journal of Molecular Sciences, 2023)
# Target: T1, TRPV3 (G573C) (Homo sapiens, UniProt Q8NET8, G573C)
# T1 construct: host or cells: HEK 293T (transient transfection, pEGFP-N1 co-transfected as a marker)
# T1 sequence (Q8NET8 1-790 G573C): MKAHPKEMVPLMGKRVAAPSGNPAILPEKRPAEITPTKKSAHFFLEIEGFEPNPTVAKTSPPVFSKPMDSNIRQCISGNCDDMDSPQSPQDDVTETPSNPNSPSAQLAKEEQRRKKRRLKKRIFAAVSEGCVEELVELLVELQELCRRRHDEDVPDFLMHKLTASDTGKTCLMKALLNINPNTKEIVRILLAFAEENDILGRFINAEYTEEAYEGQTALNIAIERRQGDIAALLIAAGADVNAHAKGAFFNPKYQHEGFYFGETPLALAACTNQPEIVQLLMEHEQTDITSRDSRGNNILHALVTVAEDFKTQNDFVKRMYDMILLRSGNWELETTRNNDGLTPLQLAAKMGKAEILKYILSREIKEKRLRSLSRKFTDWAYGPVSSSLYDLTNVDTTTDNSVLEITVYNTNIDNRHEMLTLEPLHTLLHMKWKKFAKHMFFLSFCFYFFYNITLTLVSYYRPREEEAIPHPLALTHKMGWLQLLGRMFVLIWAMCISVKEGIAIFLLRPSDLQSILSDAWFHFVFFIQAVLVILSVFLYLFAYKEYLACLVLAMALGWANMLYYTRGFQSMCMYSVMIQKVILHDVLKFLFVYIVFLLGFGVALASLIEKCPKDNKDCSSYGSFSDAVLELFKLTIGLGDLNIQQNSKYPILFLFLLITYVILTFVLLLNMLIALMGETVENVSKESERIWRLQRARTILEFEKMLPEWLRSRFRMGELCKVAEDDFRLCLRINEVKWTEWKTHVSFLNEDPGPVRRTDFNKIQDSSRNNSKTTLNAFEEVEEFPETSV
# Experiment: Fura-2 calcium imaging, spontaneous Ca2+ increase in TRPV3 (G573C)-expressing HEK 293T cells
# Assay type: cell-based
# Details: 1 µM
# From the text: Figure 4 Alpha-mangostin inhibited the activity of hyperactive TRPV3 mutant channels and rescued mutation-induced cell death. (A) Alpha-mangostin inhibited the channel current in representative TRPV3 (G573S)- and TRPV3 (G573C)-expressing HEK 293T cells. […] Currents were normalized to the response at −100 mV before adding alpha-mangostin. (C) Alpha-mangostin inhibited TRPV3-mediated intracellular calcium increase in TRPV3 (G573S)-expressing HEK 293T cells. […] The bar graph on the right summarizes the change in the intracellular calcium rise inhibited by alpha-mangostin. […]
# Subsequently, the effects of alpha-mangostin on the activities of the mutated channels were further evaluated using intracellular calcium measurements.
# Fura-2 AM (Thermo Fisher Scientific) was utilized as a fluorescent indicator to measure calcium signal, as described previously. […] To measure the cytosolic Ca^2+ level, a sequential excitation of Fura-2 is performed at 340 nm and 380 nm; then, the emission signals resulting from each excitation wavelength are measured and the ratio of these signals is calculated. […] Samples were excited using a wavelength of 380 nm for 20 ms, followed by 340 nm for 100 ms, and fluorescence at 510 nm was recorded. Recorded data were then analyzed using NIS-Element AR Version 5.00.00 (Nikon Instruments, Melville, NY, USA). […]
compound,measurement,value
COc1c(O)cc2oc3cc(O)c(CC=C(C)C)c(O)c3c(=O)c2c1CC=C(C)C [Alpha-mangostin],Effect on spontaneous intracellular calcium increase,potently attenuated
